# According to the NIST ThermoML archive (doi:10.1016/j.jct.2004.03.005):
# Numbers after ± are expanded uncertainties.
# Columns and labels:
# [1] = for Triple point temperature: Crystal 2, DTA; for vapor or sublimation pressure: Crystal, Calculated from knudsen effusion weight loss
# [2] = Molar enthalpy of transition or fusion; conditions: Crystal 2; DSC
# [3] = molar heat capacity at constant pressure; conditions: 101.33 kPa, Small sample (50 mg) DSC
SMILES,Triple point temperature [1],Molar enthalpy of transition or fusion [2],"molar heat capacity at constant pressure ([3]; 268.15 K, Crystal 2)","molar heat capacity at constant pressure ([3]; 270.15 K, Crystal 2)","molar heat capacity at constant pressure ([3]; 275.15 K, Crystal 2)","molar heat capacity at constant pressure ([3]; 280.15 K, Crystal 2)","molar heat capacity at constant pressure ([3]; 285.15 K, Crystal 2)","molar heat capacity at constant pressure ([3]; 290.15 K, Crystal 2)","molar heat capacity at constant pressure ([3]; 295.15 K, Crystal 2)","molar heat capacity at constant pressure ([3]; 298.15 K, Crystal 2)","molar heat capacity at constant pressure ([3]; 300.15 K, Crystal 2)","molar heat capacity at constant pressure ([3]; 305.15 K, Crystal 2)","molar heat capacity at constant pressure ([3]; 310.15 K, Crystal 2)","molar heat capacity at constant pressure ([3]; 315.15 K, Crystal 2)","molar heat capacity at constant pressure ([3]; 320.15 K, Crystal 2)","molar heat capacity at constant pressure ([3]; 325.15 K, Crystal 2)","molar heat capacity at constant pressure ([3]; 330.15 K, Crystal 2)","molar heat capacity at constant pressure ([3]; 335.15 K, Crystal 2)","molar heat capacity at constant pressure ([3]; 340.15 K, Crystal 2)","molar heat capacity at constant pressure ([3]; 345.15 K, Crystal 2)",further results
"CC(C)c1nc2ccccc2[nH]1 [1H-benzimidazole, 2-(1-methylethyl)-]",410.4 ± 0.4 K,0.239 ± 0.0478 kcal/mol,197 ± 3.9 J/K/mol,199 ± 4 J/K/mol,202.8 ± 4.1 J/K/mol,206.9 ± 4.1 J/K/mol,210.8 ± 4.2 J/K/mol,214.4 ± 4.3 J/K/mol,218.7 ± 4.4 J/K/mol,220.6 ± 4.4 J/K/mol,221.7 ± 4.4 J/K/mol,224.5 ± 4.5 J/K/mol,228 ± 4.6 J/K/mol,230.9 ± 4.6 J/K/mol,234.6 ± 4.7 J/K/mol,238 ± 4.8 J/K/mol,240.7 ± 4.8 J/K/mol,245.2 ± 4.9 J/K/mol,248.9 ± 5 J/K/mol,252.7 ± 5 J/K/mol,"molar heat capacity at constant pressure ([3]; 350.15 K, Crystal 2): 256 ± 5.1 J/K/mol; molar heat capacity at constant pressure ([3]; 355.15 K, Crystal 2): 260 ± 5.2 J/K/mol; molar heat capacity at constant pressure ([3]; 360.15 K, Crystal 2): 264 ± 5.3 J/K/mol; molar heat capacity at constant pressure ([3]; 365.15 K, Crystal 2): 267.4 ± 5.3 J/K/mol; molar heat capacity at constant pressure ([3]; 370.15 K, Crystal 2): 272 ± 5.4 J/K/mol; molar heat capacity at constant pressure ([3]; 375.15 K, Crystal 2): 276.3 ± 5.5 J/K/mol; molar heat capacity at constant pressure ([3]; 380.15 K, Crystal 2): 280.1 ± 5.6 J/K/mol; molar heat capacity at constant pressure ([3]; 385.15 K, Crystal 2): 284.6 ± 5.7 J/K/mol; molar heat capacity at constant pressure ([3]; 425.15 K, Crystal 1): 285.7 ± 5.7 J/K/mol; molar heat capacity at constant pressure ([3]; 430.15 K, Crystal 1): 288.4 ± 5.8 J/K/mol; molar heat capacity at constant pressure ([3]; 435.15 K, Crystal 1): 292.2 ± 5.8 J/K/mol; molar heat capacity at constant pressure ([3]; 440.15 K, Crystal 1): 298.2 ± 6 J/K/mol; molar heat capacity at constant pressure ([3]; 445.15 K, Crystal 1): 301.3 ± 6 J/K/mol; molar heat capacity at constant pressure ([3]; 450.15 K, Crystal 1): 308.5 ± 6.2 J/K/mol; molar heat capacity at constant pressure ([3]; 455.15 K, Crystal 1): 310.9 ± 6.2 J/K/mol; molar heat capacity at constant pressure ([3]; 460.15 K, Crystal 1): 314.8 ± 6.3 J/K/mol; molar heat capacity at constant pressure ([3]; 463.15 K, Crystal 1): 316.2 ± 6.3 J/K/mol"
"CCCc1nc2ccccc2[nH]1 [1H-benzimidazole, 2-propyl-]",385.8 ± 0.5 K,0.359 ± 0.0478 kcal/mol,190.5 ± 3.8 J/K/mol,192.6 ± 3.9 J/K/mol,197.1 ± 3.9 J/K/mol,201.5 ± 4 J/K/mol,206.1 ± 4.1 J/K/mol,210.1 ± 4.2 J/K/mol,214.4 ± 4.3 J/K/mol,217.1 ± 4.3 J/K/mol,218.7 ± 4.4 J/K/mol,223.2 ± 4.5 J/K/mol,228.3 ± 4.6 J/K/mol,234 ± 4.7 J/K/mol,239.7 ± 4.8 J/K/mol,245.7 ± 4.9 J/K/mol,252.2 ± 5 J/K/mol,258.6 ± 5.2 J/K/mol,263.7 ± 5.3 J/K/mol,268.3 ± 5.4 J/K/mol,"vapor or sublimation pressure ([1]; 344.53 K): 4.28e-05 ± 2.2e-06 kPa; vapor or sublimation pressure ([1]; 352.14 K): 9.52e-05 ± 4.8e-06 kPa; vapor or sublimation pressure ([1]; 355.33 K): 0.000131 ± 7e-06 kPa; vapor or sublimation pressure ([1]; 362.01 K): 0.000266 ± 1.3e-05 kPa; vapor or sublimation pressure ([1]; 364.33 K): 0.000324 ± 1.6e-05 kPa; molar heat capacity at constant pressure ([3]; 350.15 K, Crystal 2): 274.9 ± 5.5 J/K/mol; molar heat capacity at constant pressure ([3]; 355.15 K, Crystal 2): 282.4 ± 5.7 J/K/mol; molar heat capacity at constant pressure ([3]; 360.15 K, Crystal 2): 292.6 ± 5.8 J/K/mol; molar heat capacity at constant pressure ([3]; 365.15 K, Crystal 2): 306.3 ± 6.1 J/K/mol; molar heat capacity at constant pressure ([3]; 400.15 K, Crystal 1): 280.1 ± 5.6 J/K/mol; molar heat capacity at constant pressure ([3]; 405.15 K, Crystal 1): 285.2 ± 5.7 J/K/mol; molar heat capacity at constant pressure ([3]; 410.15 K, Crystal 1): 290.7 ± 5.8 J/K/mol; molar heat capacity at constant pressure ([3]; 415.15 K, Crystal 1): 297.5 ± 6 J/K/mol; molar heat capacity at constant pressure ([3]; 420.15 K, Crystal 1): 306.5 ± 6.1 J/K/mol"
